Experimental data reported in patent US10253052B2, “HBED-bisphosphonates, radiometal conjugates and their use as theranostic agents” (Five Eleven Pharma Inc., priority 2015, dated 2019).

Tests used:
[1] = In vivo biodistribution in mice; set-up: species or system normal CD-1 male mice; conditions: iv
Protocol: Biodistribution experiments were performed by intravenously administering ^68Ga labeled 1a-h, 2, 3, BPAMD, and [^18F]NaF into normal, healthy male CD-1 mice (25-30 g). The injection activity was 20-30 μCi/animal. […] Organs of interest were harvested, weighed, and counts of radioactivity were measured by a gamma counter. The biodistribution of each sample was calculated as a percentage of the injected dose per gram of wet tissue weight (% ID/g). Tibia and femur bones were harvested and counted as bone samples.

[2] = In vitro binding to hydroxyapatite; conditions: 20 mg hydroxyapatite in saline, 10 min at room temperature
Protocol: Hydroxyapatite (20 mg, Sigma-Aldrich, reagent grade powder) was incubated in isotonic saline (1 mL) for 24 h. Subsequently, either ^68Ga labeled 1a-h, 2, 3, BPAMD, or [^18F]NaF (1 μCi) was added to the hydroxyapatite suspension. After vortexing for 10 seconds, the suspension was incubated for 10 min at room temperature. The samples were then centrifuged at 10,000 rpm for 3 min and the supernatant was removed. The hydroxyapatite fraction was washed twice with saline (1 mL). Radioactivity in the combined supernatants and the hydroxyapatite fraction was measured using a gamma counter. The proportion of the ^68Ga complex binding to hydroxyapatite was determined as percent of ^68Ga absorbed to hydroxyapatite.

O=C([O-])CN(CCN(CC(=O)[O-])Cc1cc(CCC(=O)N[C@@H](CC(=O)O)C(=O)O)ccc1[O-])Cc1cc(CCC(=O)NC(P(=O)(O)O)P(=O)(O)O)ccc1[O-].[68Ga+3] [[^68Ga]1e]
bone to blood ratio ([1]; 2 min): 1
bone to muscle ratio ([1]; 2 min): 5
Biodistribution: Blood ([1]; 2 min post injection): 8.31 ± 0.57 % dose/g
Biodistribution: Bone ([1]; 2 min post injection): 8.82 ± 0.77 % dose/g
Biodistribution: Brain ([1]; 2 min post injection): 0.20 ± 0.04 % dose/g
Biodistribution: Heart ([1]; 2 min post injection): 2.55 ± 0.06 % dose/g
Biodistribution: Kidney ([1]; 2 min post injection): 24.8 ± 3.02 % dose/g
Biodistribution: Liver ([1]; 2 min post injection): 1.90 ± 0.13 % dose/g
Biodistribution: Lung ([1]; 2 min post injection): 4.00 ± 0.20 % dose/g
Biodistribution: Muscle ([1]; 2 min post injection): 1.71 ± 0.19 % dose/g
Biodistribution: Pancreas ([1]; 2 min post injection): 1.27 ± 0.07 % dose/g
Biodistribution: Skin ([1]; 2 min post injection): 2.54 ± 0.26 % dose/g
Biodistribution: Spleen ([1]; 2 min post injection): 1.72 ± 0.19 % dose/g
bone to blood ratio ([1]; 30 min): 29
bone to muscle ratio ([1]; 30 min): 67
Biodistribution: Blood ([1]; 30 min (0.5 hr) post injection): 0.57 ± 0.12 % dose/g
Biodistribution: Bone ([1]; 30 min (0.5 hr) post injection): 16.5 ± 0.56 % dose/g
Biodistribution: Brain ([1]; 30 min (0.5 hr) post injection): 0.02 ± 0.01 % dose/g
Biodistribution: Heart ([1]; 30 min (0.5 hr) post injection): 0.26 ± 0.04 % dose/g
Biodistribution: Kidney ([1]; 30 min (0.5 hr) post injection): 2.26 ± 0.27 % dose/g
Biodistribution: Liver ([1]; 30 min (0.5 hr) post injection): 0.27 ± 0.02 % dose/g
Biodistribution: Lung ([1]; 30 min (0.5 hr) post injection): 0.42 ± 0.08 % dose/g
Biodistribution: Muscle ([1]; 30 min (0.5 hr) post injection): 0.25 ± 0.03 % dose/g
Biodistribution: Pancreas ([1]; 30 min (0.5 hr) post injection): 0.17 ± 0.05 % dose/g
Biodistribution: Skin ([1]; 30 min (0.5 hr) post injection): 0.86 ± 0.22 % dose/g
Biodistribution: Spleen ([1]; 30 min (0.5 hr) post injection): 0.19 ± 0.02 % dose/g
bone to blood ratio ([1]; 60 min): 138
bone to muscle ratio ([1]; 60 min): 258
Biodistribution: Blood ([1]; 60 min (1 hr) post injection): 0.11 ± 0.02 % dose/g
Biodistribution: Bone ([1]; 60 min (1 hr) post injection): 14.9 ± 1.45 % dose/g
Biodistribution: Brain ([1]; 60 min (1 hr) post injection): 0.01 ± 0.00 % dose/g
Biodistribution: Heart ([1]; 60 min (1 hr) post injection): 0.08 ± 0.00 % dose/g
Biodistribution: Kidney ([1]; 60 min (1 hr) post injection): 2.12 ± 0.55 % dose/g
Biodistribution: Liver ([1]; 60 min (1 hr) post injection): 0.14 ± 0.01 % dose/g
Biodistribution: Lung ([1]; 60 min (1 hr) post injection): 0.15 ± 0.01 % dose/g
Biodistribution: Muscle ([1]; 60 min (1 hr) post injection): 0.06 ± 0.00 % dose/g
Biodistribution: Pancreas ([1]; 60 min (1 hr) post injection): 0.06 ± 0.01 % dose/g
Biodistribution: Skin ([1]; 60 min (1 hr) post injection): 0.12 ± 0.01 % dose/g
Biodistribution: Spleen ([1]; 60 min (1 hr) post injection): 0.09 ± 0.01 % dose/g
bone to blood ratio ([1]; 120 min): 230
bone to muscle ratio ([1]; 120 min): 411
Biodistribution: Blood ([1]; 120 min post injection): 0.08 ± 0.02 % dose/g
Biodistribution: Bone ([1]; 120 min post injection): 17.6 ± 2.61 % dose/g
Biodistribution: Brain ([1]; 120 min post injection): 0.01 ± 0.01 % dose/g
Biodistribution: Heart ([1]; 120 min post injection): 0.06 ± 0.01 % dose/g
Biodistribution: Kidney ([1]; 120 min post injection): 1.41 ± 0.28 % dose/g
Biodistribution: Liver ([1]; 120 min post injection): 0.14 ± 0.02 % dose/g
Biodistribution: Lung ([1]; 120 min post injection): 0.12 ± 0.02 % dose/g
Biodistribution: Muscle ([1]; 120 min post injection): 0.04 ± 0.01 % dose/g
Biodistribution: Pancreas ([1]; 120 min post injection): 0.04 ± 0.01 % dose/g
Biodistribution: Skin ([1]; 120 min post injection): 0.12 ± 0.03 % dose/g
Biodistribution: Spleen ([1]; 120 min post injection): 0.06 ± 0.01 % dose/g
Hydroxyapatite Binding (%) [2]: 95.8 ± 0.9%
